The nature of the data set: Acute Oral Toxicity in Mice (Laboratory Strain). The conditions noted are these: mouse, in vivo, aqueous suspension, mg/kg animal body weight, observed until no deaths for at least three days. Here is the method:
Acute Oral Toxicity in Mice (Laboratory Strain)
Groups of mice were dosed orally with graded doses of the test compound in aqueous suspension and observed until there had been no deaths for at least three days. The acute oral LD50, that is to say the dose in mg/kg animal body weight necessary to kill 50% of the mice, was determined from the numbers of animals for each dose which died during the observation period by reference to published tables.

With `CC(=O)O.CC(C)(CO)C1CCN(CC#Cc2cc(C(F)(F)F)cc(C(F)(F)F)c2)CC1` [1 (as acetate), 1-(3,5-bistrifluoromethylphenyl)-3-[4-(1,1-dimethyl-2-hydroxyethyl)piperidino]prop-1-yne acetate], the median lethal dose (LD50) worked out at 95 mg/kg.

As to `CC(C)(CO)C1CCN(CC#Cc2cc(C(F)(F)F)cc(C(F)(F)F)c2)CC1` [1 (as free base), 1-(3,5-bistrifluoromethylphenyl)-3-[4-(1,1-dimethyl-2-hydroxyethyl)piperidino]prop-1-yne], the LD50 is 78 mg/kg.

As to `CC(C)(CO)C1CCN(CC#Cc2cc(C(F)(F)F)cc(C(F)(F)F)c2)CC1.Cl` [1 (as hydrochloride), 1-(3,5-bistrifluoromethylphenyl)-3-[4-(1,1-dimethyl-2-hydroxyethyl)piperidino]-prop-1yne hydrochloride], the LD50 was found to be 62 mg/kg.

The molecule `CC(C)(CO)C1CCN(CC#Cc2cc(C(F)(F)F)cc(C(F)(F)F)c2)CC1.O=[N+]([O-])O` [1 (as nitrate), 1-(3,5-bistrifluoromethylphenyl)-3-[4-(1,1-dimethyl-2-hydroxyethyl)piperidino]prop-1-yne nitrate] showed an LD50 of 72 mg/kg.

Regarding `CC(C)(CO)C1CCN(CC#Cc2cc(C(F)(F)F)cc(C(F)(F)F)c2)CC1.NS(=O)(=O)O` [1 (as sulphamate), 1-(3,5-bistrifluoromethylphenyl)-3-[4-(1,1-dimethyl-2-hydroxyethyl)piperidino]prop-1-yne sulphamate], the LD50 is 72 mg/kg.

In turn, `COCC(C)(C)C1CCN(CC#Cc2cc(C(F)(F)F)cc(C(F)(F)F)c2)CC1.Cl` [2 (as hydrochloride), 1-(3,5-bistrifluoromethylphenyl)-3-[4-(1,1-dimethyl-2-methoxyethyl)piperidino]prop-1-yne hydrochloride] displayed a median lethal dose (LD50) of 68 mg/kg.

`CC(=O)OCC(C)(C)C1CCN(CC#Cc2cc(C(F)(F)F)cc(C(F)(F)F)c2)CC1.Cl` [3 (as hydrochloride), 1-(3,5-bistrifluoromethylphenyl)-3-[4-(1,1-dimethyl-2-acetyloxyethyl)piperidino]prop-1-yne hydrochloride] showed an LD50 of 68 mg/kg.

On to `CC(C)(C=O)C1CCN(CC#Cc2cc(C(F)(F)F)cc(C(F)(F)F)c2)CC1.Cl` [4 (as hydrochloride), 1-(3,5-bistrifluoromethylphenyl)-3-[4-(1,1-dimethyl-2-oxoethyl)piperidino]prop-1-yne hydrochloride], for which the LD50 was determined as 68 mg/kg.

The values above are taken from patent publication US4871748A, “Phenylpropargylamine derivatives” (May & Baker Limited, priority 1984, dated 1989).
